Experimental data published in PMC4359714 (Naunyn-Schmiedeberg's Archives of Pharmacology, 2015).

Experiments:
[1] = test system: cold hypersensitivity after CFA or peripheral nerve injury models; conditions: ref Knowlton et al. [2011]; cited from earlier work
rats = test: Open field activity; type: in vivo, rat; conditions: 5.6 mg/kg i.p., 30 min before; p < 0.05 vs vehicle (14,484 ± 1686 cm)
Experimental: Rats were habituated in a reversed light cycle room in home cages for at least 1 week and acclimated to the testing room for 1 h prior to dosing. TRPM8 antagonist (10, 30, or 100 mg/kg) or vehicle (5 % Tween 80 in OraPlus®) was injected 2 h before placing an animal in the open-field apparatus. Open-field activity was measured using a system that counts interruptions of a set of photobeams for the course of 60 min (Kinder Scientific, Poway, CA). To begin a session, animals were removed from the home cage and placed individually into an independent Plexiglas box (41 cm L × 41 cm W × 38 cm H) surrounded by a frame consisting of 32 photocells (16Y and 16X) that track the movement of the animal. Photobeam breaks were used as an indication of activity and were measured as the following parameters per minute: basic movements (beam breaks), distance traveled (cm), time spent (s), and number of repetitive beam breaks (i.e., stereotypic movement). Chlordiazepoxide, which consistently elicits a decrease in open field activity, was used as a positive control. Chlordiazepoxide was formulated in saline at 5.6 mg/kg i.p. and dosed 30 min before the start of the open field assay.

SNL rats = test: SNL-induced tactile allodynia (von Frey, up-down method); type: in vivo, rat; conditions: 200 mg/kg p.o.; p < 0.05 vs vehicle (4.4 ± 1.2 g)
Experimental: SNL surgery was performed using aseptic surgical techniques and a stereomicroscope (Kim and Chung [1992]). Spinal nerve injury was caused by ligating the left L5 and L6 spinal nerves, with special care to avoid damage to the L4 spinal nerve or surrounding area. More specifically, under gaseous anesthesia with a mixture of O2 and isoflurane (3 % for induction and 2 % for maintenance), skin was excised and the longissimus lumborum muscle, part of articular processes (L4-S1), and the fascia above L6 spinal nerve were carefully removed. […]
Behavioral testing Two weeks post surgery, mechanical sensitivity was measured by determining the median 50 % foot withdrawal threshold for von Frey filaments using the up-down method (Chaplan et al. [1994]). […] To avoid possible reflex responses, only abrupt withdrawal of the foot accompanied by pain indicative behaviors (namely paw flinching, shaking, or licking for more than 2 s) was recorded as a response. […]
In vivo IC50 and IC90 estimates using WDS model data were determined by fitting a sigmoidal dose-response curve to individual animal number of WDS versus resulting plasma concentration. Behavioral and electrophysiological data are expressed as mean ± standard error of the mean (S.E.M.). Results were analyzed using one-way analysis of variance (ANOVA) with Dunnett’s multiple-comparisons post-hoc test for significance relative to vehicle. […]

[2] = test system: TRPM8-mediated icilin-induced wet-dog shakes in rats; test: Icilin-induced wet-dog shake (WDS) model; type: in vivo, rat
Experimental: The TRPM8 antagonist (1, 3, or 10 mg/kg) or vehicle control (5 % Tween 80 in OraPlus®) was administered p.o. 90 min prior to administration of icilin (0.5 mg/kg, 1 ml/kg, i.p., 100 % PEG 400). […] Rats were viewed through transparent Plexiglas® observation cylinders that were placed on a custom, opaque, plastic apparatus such that one rat could not view another rat.
In vivo IC50 and IC90 estimates using WDS model data were determined by fitting a sigmoidal dose-response curve to individual animal number of WDS versus resulting plasma concentration. Behavioral and electrophysiological data are expressed as mean ± standard error of the mean (S.E.M.). Results were analyzed using one-way analysis of variance (ANOVA) with Dunnett’s multiple-comparisons post-hoc test for significance relative to vehicle. […] Actual gram values are plotted on a logarithmic scale Y-axis of the figures for convenience. Statistical calculations and graphs were made using GraphPad Prism 5.01 (GraphPad Software Inc, San Diego, CA). Percent responders to menthol stimulation in the ex vivo skin-nerve preparation were compared under vehicle and antagonist conditions through the use of Fisher’s exact test. Responses of C fibers to increasing mechanical forces under vehicle or antagonist conditions were compared using a two-way ANOVA with a Bonferonni post-hoc analysis.

In the case of `COc1cc(CN(CCN)C(=O)OC(C)c2ccccc2)ccc1OCc1ccccc1` (centres unmarked) [PBMC], the “effect on cold hypersensitivity after CFA or peripheral nerve injury” value [1] is listed as “attenuated cold hypersensitivity”.

For `CNC1=Nc2ccc(Cl)cc2C(c2ccccc2)=[N+]([O-])C1` [chlordiazepoxide, Chlordiazepoxide, reference compound], the “total distance traveled, open field (positive control)” value (rats) was 9423 ± 745 cm.

With `NCC1(CC(=O)O)CCCCC1` [gabapentin, reference compound] the “tactile threshold (von Frey), SNL model (positive control)” value (SNL rats) was 12.4 ± 1.2 g.

With `O=C1NC(c2cccc([N+](=O)[O-])c2)=CCN1c1ccccc1O` [icilin, reference compound] the “ED80 for induction of wet-dog shakes” value ([2]; icilin i.p. 0.3, 0.5, 0.75, 1 mg/kg) was “less than 0.5 mg/kg” and the “ED90 for induction of wet-dog shakes” value ([2]; icilin i.p. 0.3–1.0 mg/kg dose-response, interval 0.28–0.75, data not shown) was 0.46 mg/kg.
